Measurements published in PubChem BioAssay (NCI).
Where “and” joins values, the source holds several entries; their conditions need not be identical. Equal values may be shown once.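 Method: 48-hour compound exposure of cells in 96-well plates, five concentrations, linear interpolation of endpoints. Here, GI50 denotes the concentration required for 50% inhibition of growth. TGI: total growth inhibition.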

Tests used:
Experiment in all cases: NCI anticancer screen, dose series, 48 h
786-0 renal = test system: 786-0 renal
BT-549 breast = test system: BT-549 breast
HCT-15 colon = test system: HCT-15 colon
HOP-92 NSCLC = test system: HOP-92 NSCLC
IGROV1 ovarian = test system: IGROV1 ovarian
MOLT-4 leukemia = test system: MOLT-4 leukemia
NCI-H522 lung = test system: NCI-H522 lung
SK-MEL-2 melanoma = test system: SK-MEL-2 melanoma
SK-MEL-28 melanoma = test system: SK-MEL-28 melanoma
SR leukemia = test system: SR leukemia

Row | SMILES | GI50 (786-0 renal) | TGI (786-0 renal) | GI50 (BT-549 breast) [µM] | GI50 (HCT-15 colon) | TGI (HCT-15 colon) | GI50 (HOP-92 NSCLC) | TGI (HOP-92 NSCLC) | GI50 (IGROV1 ovarian) | TGI (IGROV1 ovarian) | TGI (MOLT-4 leukemia) | GI50 (NCI-H522 lung) [µM] | TGI (NCI-H522 lung) [µM] | GI50 (SK-MEL-2 melanoma) | GI50 (SK-MEL-28 melanoma) [µM] | TGI (SK-MEL-28 melanoma) [µM] | GI50 (SR leukemia) | TGI (BT-549 breast) [µM] | GI50 (MOLT-4 leukemia) [µM] | TGI (SK-MEL-2 melanoma) [µM] | TGI (SR leukemia) [µM]
1 | CC(=O)O[C@H]1C(=O)[C@@]2(C)[C@H]([C@H](OC(=O)c3ccccc3)[C@]3([O-])C[C@H](OC(=O)[C@H]([O-])[C@@H](NC(=O)c4ccccc4)c4ccccc4)C(C)=C1C3(C)C)[C@]1(OC(C)=O)CO[C@@H]1C[C@@H]2[O-].[Fe+3] | 0.261 µM and 2.24 µM | 49.1 µM and > 100 µM | 0.309 | 1.97 µM and 2.33 µM | 16.2 µM and 17 µM | > 65 µM and 10.5 µM | > 65 µM and 35.7 µM | 0.0426 µM and 0.211 µM | 65 µM and 72.5 µM | 65 µM and > 100 µM | 0.0385 | 12.8 | 0.11 µM and 0.161 µM | 13.2 | 64.8 | 0.0268 µM and 0.199 µM |  |  |  | 
2 | C=CC(=O)Nc1cccc(Nc2nc(Nc3ccc(OCCOC)cc3)ncc2F)c1 | 0.887 µM | 13.1 µM | 0.718 | 1.03 µM | 16.1 µM | 0.928 µM | 5.34 µM | 1.66 µM | 5.45 µM | 33.6 µM | 1.78 | 8.14 | 1.9 µM | 5.62 | 24.4 | 3.41 µM | 8.23 | 3.97 | 8.65 | > 100
3 | CC(=O)[CH-]C(C)=O.CC(=O)[CH-]C(C)=O.N=CC=N.[Sn+2] | 1.76 µM | 3.23 µM | 2.76 | 2.7 µM | 7.14 µM | 1.74 µM | 3.79 µM | 9.53 µM | 22.4 µM | 7.47 µM | 0.911 | 2.13 | 3.46 µM | 1.92 | 4.27 | 1.06 µM | 8.25 | 2.03 | 11.2 | 5.3
4 | CCCSc1cc(Cl)nc(N)n1 | > 100 µM | > 100 µM | 65.1 | > 100 µM | > 100 µM | 14.8 µM | > 100 µM | > 100 µM | > 100 µM | > 100 µM | > 100 | > 100 | > 100 µM | > 100 | > 100 | > 100 µM | > 100 | 94.8 | > 100 | > 100
5 | COc1ccc2c(c1)C=CC(C#N)N2C(=O)c1ccccc1 (stereo not drawn) | < 0.01 µM | > 100 µM |  | < 0.01 µM | > 100 µM |  | 45.9 µM |  | > 100 µM | > 100 µM | < 0.01 | 0.188 | < 0.01 µM |  | > 100 | < 0.01 µM | > 67.5 | < 0.01 | > 100 | > 100
6 | CNC(=O)c1ccc(-c2cnc3ncc(Cc4ccc5ncccc5c4)n3n2)cc1F | 64.3 µM | > 100 µM | > 100 | > 100 µM | > 100 µM | 8.54 µM | 91.5 µM | > 100 µM | > 100 µM | > 100 µM | 38 | > 100 | 97.1 µM | > 100 | > 100 | > 100 µM | > 100 | > 100 | > 100 | > 100
7 | CCN(Cc1c(F)cccc1F)c1ccc(CO)c(Cl)c1 | 15.3 µM | 45.6 µM | 16.5 | 9.04 µM | 48.8 µM | 0.162 µM | 0.988 µM | 0.0401 µM | 0.193 µM | 71.7 µM | 15.1 | 38.8 | 14.6 µM | 19.1 | 52.6 | 16.5 µM | 41.4 | 22.1 | 31.8 | 49.2
8 | COc1cc(-c2cn(C)c(=O)c(C)c2C)cc(OC)c1CN1CC[C@H](N2CCN(c3ccc(N[C@H]4CCC(=O)NC4=O)cc3F)CC2)C(F)(F)C1 | 12.8 µM | 36.6 µM | 12.6 | 10.7 µM | 24.1 µM | 8.81 µM | 24.8 µM | 13.8 µM | 34.3 µM | > 100 µM | 8.09 | 24.1 | 14.6 µM | 15.6 | 30.9 | 6.7 µM | 28.3 | 21.2 | 29.4 | 51
9 | CC(=O)n1c(-c2ccc(Cl)cc2)nc2c(c1=O)C(c1ccc(Cl)cc1)c1sc3c(Cl)cccc3c1O2 (stereo not drawn) | 0.48 µM | 1.7 µM | 0.373 | 0.418 µM | 1.74 µM | 1.27 µM | 4.61 µM | 0.847 µM | 3.11 µM | 2.54 µM | 0.296 | 1.63 | 0.482 µM | 1.1 | 3.15 | 0.436 µM | 1.89 | 0.409 | 2.15 | 3.95
10 | CCn1c(-c2nonc2N)nc2ccc(F)cc21 | > 25 µM | > 25 µM | > 25 | > 25 µM | > 25 µM | 7.36 µM | > 25 µM | > 25 µM | > 25 µM | > 25 µM | > 25 | > 25 | > 25 µM | > 25 | > 25 | > 25 µM | > 25 | > 25 | > 25 | > 25
11 | CCCNCc1cc(C)cc2c1nc(N1CCNCC1)n2Cc1cc(C)c(F)c(C)c1 | 1.86 µM | 3.96 µM | 12.3 | 4.46 µM | 16.4 µM | 1.83 µM | 6.49 µM | 10.3 µM | 25.1 µM | 4.39 µM | 2.09 | 5.67 | 14.1 µM | 1.84 | 3.54 | 1.22 µM | 26.1 | 1.8 | 28.1 | 3.39
12 | O=C(Nc1cc(-c2ccccc2)[nH]n1)c1ccc(Cl)cc1 | 72.4 µM | > 100 µM | > 100 | 4.14 µM | > 100 µM | 37.1 µM | > 100 µM | 3.04 µM | > 100 µM |  |  |  | 6.97 µM | > 100 | > 100 | 5.65 µM | > 100 |  | > 100 | > 100
